Experimental data published in US9527812B2, “N-heterocyclic carbene-catalyzed synthesis of 2-aryl indoles” (Northwestern University, priority 2014, dated 2016).

Compound	melting point [°C]
CC(C)(C)OC(=O)n1c(-c2ccc(Cl)cc2)cc2ccccc21 [4b, tert-butyl 2-(4-chlorophenyl)-1H-indole-1-carboxylate]	86 to 87
CC(C)(C)OC(=O)n1c(-c2ccccc2)cc2c(Cl)cccc21 [4q, tert-butyl 4-chloro-2-phenyl-1H-indole-1-carboxylate]	111 to 112
CC(C)(C)OC(=O)n1c(-c2ccc(Br)cc2)cc2ccccc21 [4c, tert-butyl 2-(4-bromophenyl)-1H-indole-1-carboxylate]	88 to 89
CC(C)(C)OC(=O)n1c(-c2ccccc2)cc2ccc(Br)cc21 [4w, tert-butyl 6-bromo-2-phenyl-1H-indole-1-carboxylate]	54 to 55
Cc1ccc2cc(-c3ccccc3)n(C(=O)OC(C)(C)C)c2c1 [4y, tert-butyl 6-methyl-2-phenyl-1H-indole-1-carboxylate]	62 to 64
COc1cccc2c1cc(-c1ccccc1)n2C(=O)OC(C)(C)C [4r, tert-butyl 4-methoxy-2-phenyl-1H-indole-1-carboxylate]	81 to 82
CC(C)(C)OC(=O)n1c(-c2ccc(C(F)(F)F)cc2)cc2ccccc21 [4e, tert-butyl 2-(4-(trifluoromethyl)phenyl)-1H-indole-1-carboxylate]	108 to 109
CC(C)(C)OC(=O)n1c(-c2ccccc2)cc2ccc(Cl)cc21 [4v, tert-butyl 6-chloro-2-phenyl-1H-indole-1-carboxylate]	61 to 62
COc1ccc(-c2cc3ccccc3n2C(=O)OC(C)(C)C)cc1 [4g, tert-butyl 2-(4-methoxyphenyl)-1H-indole-1-carboxylate]	89 to 90
Cc1c(-c2ccccc2)n(C(=O)OC(C)(C)C)c2ccccc12 [4aa, tert-butyl 3-methyl-2-phenyl-1H-indole-1-carboxylate]	110 to 112
CC(C)(C)OC(=O)n1c(-c2ccc3ccccc3c2)cc2ccccc21 [4l, tert-butyl 2-(naphthalen-2-yl)-1H-indole-1-carboxylate]	134 to 135
CC(C)(C)OC(=O)n1c(-c2ccccc2)cc2c(F)cccc21 [4p, tert-butyl 4-fluoro-2-phenyl-1H-indole-1-carboxylate]	121 to 122
CC(C)(C)OC(=O)n1c(-c2ccccc2)cc2ccccc21 [compound 4, tert-butyl 2-phenyl-1H-indole-1-carboxylate]	70 to 72
CC(C)(C)OC(=O)n1c(-c2ccccc2)cc2ccc(C(F)(F)F)cc21 [4x, tert-butyl 2-phenyl-6-(trifluoromethyl)-1H-indole-1-carboxylate]	104
